Experimental data from patent US5057325A, “Method of inhibiting replication of HIV with water-soluble melanins” (Vanderbilt University, priority 1990, dated 1991).

Tested on: HIV-1 (HTLV-IIIB)
Assay type: cell-based
Details: at 1-100 μg/ml; in these assays (HTLV-IIIB, HTLV-IIIRF, HIV-2ROD infection of MT-2 cells)
Text: The activity of the melanins for inhibiting replication of HIV can be confirmed by known assays, including particularly the assay described by Montefiori, et al., J. Clin. Microb., 26:231-235, 1988. That assay utilizes human T-cell lymphotropic virus type I-immortalized MT-2 cells as targets for infection. Cytolysis can be quantitated by vital dye uptake of poly-L-lysine-adhered cells as an endpoint for infection. The MT-cell assay has now been accepted as a standard screening test.
Antiviral activities of the synthetic water-soluble melanins derived as described in Example I from L-tyrosine, L-dopa, dopamine, serotonin, norepinephrine, L-dopa/glutathione, and L-dopa/ L-cysteine were measured in 96 well microdilution plates as described (Montefiori, et al., J. Clin. Microbiol. 26:231-235, 1988). Briefly, 2-fold serial dilutions of melanins were made in triplicate in a total of 100 ul growth medium (RPMI-1640 containing 12% heat-inactivated fetal bovine serum and 50 ug gentamicin/ml) per well. MT-2 cells (5×10^4) in 100 ul of growth medium were added to each well and incubated for 10 minutes. […] Viral-induced cytopathic effect (CPE) was quantitated 3 days later by vital dye (neutral red) uptake in remaining viable cells. […]

Row | Substance | antiviral activity
1 | L-dopa | no antiviral activity
2 | L-tyrosine | no antiviral activity
